Results: ChEMBL document CHEMBL3593236, “Cloning, characterization and anion inhibition studies of a new γ-carbonic anhydrase from the Antarctic bacterium Pseudoalteromonas haloplanktis” (Bioorg Med Chem, 2015)

Target: T1, Carbonic anhydrase (Methanosarcina thermophila, UniProt P40881)
T1 sequence (P40881 whole entry): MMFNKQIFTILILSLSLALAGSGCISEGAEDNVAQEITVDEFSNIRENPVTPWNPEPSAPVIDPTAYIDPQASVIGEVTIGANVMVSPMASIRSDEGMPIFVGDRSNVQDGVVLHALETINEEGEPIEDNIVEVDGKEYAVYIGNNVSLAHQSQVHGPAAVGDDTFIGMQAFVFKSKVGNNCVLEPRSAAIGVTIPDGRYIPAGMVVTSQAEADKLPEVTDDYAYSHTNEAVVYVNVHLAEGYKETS
Description: Inhibition of archaeon Methanosarcina thermophila gamma-CA after 15 mins by stopped-flow/Co2 hydration assay

Compound	Ki
N#C[S-].[Na+] [THIOCYANATE SODIUM]	7 mM
[Br-].[Na+] [SODIUM BROMIDE]	160 mM
